What follows are compounds tested against purified human, His-tagged PRC2 complex (Homo sapiens (Human), UniProt O75530) (assay: Hot Spot HMT assay, inhibition of PRC2 enzymatic activity). Conditions: 10 nM PRC2 complex, 1 μM 3H-SAM, core histone H3, 10-point dose-response.
Format: biochemical
Excerpt: The assay uses purified human, His-tagged PRC2 complex, including N-terminal His-tagged EZH2 enzyme, N-terminal Flag-tagged embryonic ectoderm development protein (EED), N-terminal His-tagged suppressor of zeste 12 (SUZ12), N-terminal His-tagged AEBP2, and N-terminal His-tagged RbAp48. In this assay, the transfer of the tritiated methyl group from radiolabeled S-adenosyl methionine (SAM) to purified core histone protein by EZH2 is quantitated after filtration to determine the activity of the core PRC2 complex in the presence and absence of compound.
The initial starting concentration for the serial dilutions of each compound was 1.0 μM. […] SAH (S-(5-adenosyl)-L-homocysteine) was used as a positive control for assay validation.
An aliquot of each serial dilution of test compound was added to deep 384 well plate using Acoustic Technology instrument (Echo 550, LabCyte) containing reaction buffer (50 mM Tris-HCl (pH 8.)), 0.01% Brij35, 1 mM EDTA, 1 mM DTT, 1 mM PMSF and 1% DMSO), 10 nM purified PRC2 complex and 0.05 mg/ml core histone H3 in a 5 μl volume. The reaction was mixed gently and then pre-incubated for 20 min at 30° C. The enzymatic reaction was initiated by adding 1 μM S-Adenosyl-L-[methyl-^3H]methionine and incubated for 1 hr at 30° C. After 1 hr, the reaction product was detected using a filter binding method and the amount of tritiated H3 core histone was quantitated using a scintillation counter. […] Key: A=<100 nM; B=>100 nM-<500 nM; and C=>500 nM.

Sequence of purified human, His-tagged PRC2 complex (O75530 whole entry): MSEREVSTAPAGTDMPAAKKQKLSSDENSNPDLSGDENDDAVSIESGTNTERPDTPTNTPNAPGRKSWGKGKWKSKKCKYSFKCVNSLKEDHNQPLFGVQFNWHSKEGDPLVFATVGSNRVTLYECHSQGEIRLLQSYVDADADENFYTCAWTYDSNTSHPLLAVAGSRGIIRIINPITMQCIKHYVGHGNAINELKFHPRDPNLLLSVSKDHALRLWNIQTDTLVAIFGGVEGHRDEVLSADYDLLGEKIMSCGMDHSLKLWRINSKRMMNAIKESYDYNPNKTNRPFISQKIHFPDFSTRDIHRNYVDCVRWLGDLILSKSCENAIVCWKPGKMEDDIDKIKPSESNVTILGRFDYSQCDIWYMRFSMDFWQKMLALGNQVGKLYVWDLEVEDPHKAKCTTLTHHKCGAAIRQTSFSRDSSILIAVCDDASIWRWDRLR
Sequence of purified human, His-tagged PRC2 complex (Q15910 whole entry partner): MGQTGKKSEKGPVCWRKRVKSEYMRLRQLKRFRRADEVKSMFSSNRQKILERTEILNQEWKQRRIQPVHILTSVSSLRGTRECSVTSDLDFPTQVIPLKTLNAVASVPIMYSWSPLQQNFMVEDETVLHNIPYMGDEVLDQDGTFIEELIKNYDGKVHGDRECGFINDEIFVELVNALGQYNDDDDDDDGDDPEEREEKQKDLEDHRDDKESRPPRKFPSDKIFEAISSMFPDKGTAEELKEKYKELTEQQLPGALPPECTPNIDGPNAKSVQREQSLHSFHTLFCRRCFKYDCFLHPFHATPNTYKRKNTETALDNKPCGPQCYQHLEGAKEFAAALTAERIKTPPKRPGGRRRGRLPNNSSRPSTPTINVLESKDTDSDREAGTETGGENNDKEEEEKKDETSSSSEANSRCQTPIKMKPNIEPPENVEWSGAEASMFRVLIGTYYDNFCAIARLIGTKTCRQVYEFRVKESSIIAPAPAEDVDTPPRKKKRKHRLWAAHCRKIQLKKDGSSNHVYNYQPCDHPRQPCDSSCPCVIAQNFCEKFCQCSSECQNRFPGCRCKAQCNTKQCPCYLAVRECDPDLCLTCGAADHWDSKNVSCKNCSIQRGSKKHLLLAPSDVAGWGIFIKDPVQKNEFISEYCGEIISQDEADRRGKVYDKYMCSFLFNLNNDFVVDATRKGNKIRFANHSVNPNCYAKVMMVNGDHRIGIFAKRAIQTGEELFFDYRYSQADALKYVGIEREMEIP
Sequence of purified human, His-tagged PRC2 complex (Q15022 whole entry partner): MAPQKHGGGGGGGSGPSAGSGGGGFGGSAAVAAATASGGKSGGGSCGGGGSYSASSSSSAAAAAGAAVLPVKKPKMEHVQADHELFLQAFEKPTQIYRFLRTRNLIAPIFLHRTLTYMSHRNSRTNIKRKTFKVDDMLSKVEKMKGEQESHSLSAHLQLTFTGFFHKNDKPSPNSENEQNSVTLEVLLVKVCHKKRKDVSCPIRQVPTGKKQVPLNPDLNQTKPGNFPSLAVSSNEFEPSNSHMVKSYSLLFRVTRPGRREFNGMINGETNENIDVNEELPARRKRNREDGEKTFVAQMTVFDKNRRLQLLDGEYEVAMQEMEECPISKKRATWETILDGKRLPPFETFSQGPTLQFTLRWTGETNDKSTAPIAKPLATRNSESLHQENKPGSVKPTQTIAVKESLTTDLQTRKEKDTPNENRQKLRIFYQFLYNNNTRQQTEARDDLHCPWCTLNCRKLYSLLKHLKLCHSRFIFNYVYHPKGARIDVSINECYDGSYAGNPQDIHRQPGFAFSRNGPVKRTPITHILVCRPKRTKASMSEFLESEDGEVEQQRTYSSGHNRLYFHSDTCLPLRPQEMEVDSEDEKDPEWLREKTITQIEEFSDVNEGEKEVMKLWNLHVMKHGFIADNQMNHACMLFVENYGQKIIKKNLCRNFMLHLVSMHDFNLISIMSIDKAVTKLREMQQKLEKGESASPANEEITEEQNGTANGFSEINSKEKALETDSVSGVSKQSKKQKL
Sequence of purified human, His-tagged PRC2 complex (Q6ZN18 whole entry partner): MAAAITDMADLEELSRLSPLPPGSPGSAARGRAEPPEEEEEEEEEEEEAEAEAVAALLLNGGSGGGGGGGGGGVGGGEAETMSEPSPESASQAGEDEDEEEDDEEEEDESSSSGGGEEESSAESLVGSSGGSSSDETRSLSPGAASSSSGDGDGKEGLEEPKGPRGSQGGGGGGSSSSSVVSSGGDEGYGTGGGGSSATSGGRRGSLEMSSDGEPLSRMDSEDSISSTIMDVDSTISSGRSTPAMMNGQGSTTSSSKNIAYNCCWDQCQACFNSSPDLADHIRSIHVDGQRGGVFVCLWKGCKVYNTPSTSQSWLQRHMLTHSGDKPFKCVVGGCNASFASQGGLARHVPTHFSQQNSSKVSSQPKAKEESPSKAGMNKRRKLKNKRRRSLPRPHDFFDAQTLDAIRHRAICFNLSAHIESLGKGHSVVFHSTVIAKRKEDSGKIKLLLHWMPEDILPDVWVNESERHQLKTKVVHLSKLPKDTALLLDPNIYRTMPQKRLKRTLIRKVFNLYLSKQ
Sequence of purified human, His-tagged PRC2 complex (Q09028 whole entry partner): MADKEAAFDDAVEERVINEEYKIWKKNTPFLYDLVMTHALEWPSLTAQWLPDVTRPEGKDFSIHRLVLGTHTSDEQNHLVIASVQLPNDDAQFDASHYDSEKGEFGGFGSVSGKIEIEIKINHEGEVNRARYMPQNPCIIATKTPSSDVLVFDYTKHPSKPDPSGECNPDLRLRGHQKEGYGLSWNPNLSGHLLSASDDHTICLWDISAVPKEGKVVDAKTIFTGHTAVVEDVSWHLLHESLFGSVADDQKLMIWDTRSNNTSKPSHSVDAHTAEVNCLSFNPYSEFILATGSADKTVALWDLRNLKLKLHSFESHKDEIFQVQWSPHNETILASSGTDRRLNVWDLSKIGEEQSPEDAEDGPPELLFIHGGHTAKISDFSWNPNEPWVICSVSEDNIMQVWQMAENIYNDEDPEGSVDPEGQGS

| IC50 [µM] | Structure (SMILES) |
| --- | --- |
| < 0.1 | CN(C)C(=O)c1ccc(-c2cnc(NCc3c(F)ccc4c3CCO4)n3cc(C#N)nc23)c(Cl)c1 [Example 31, 3-chloro-4-(2-cyano-5-(((5-fluoro-2,3-dihydrobenzofuran-4-yl)methyl)amino)imidazo[1,2-c]pyrimidin-8-yl)-N,N-dimethylbenzamide] |
| < 0.1 | CN(C)Cc1ccc(-c2cnc(NCc3c(F)ccc4c3CCO4)n3cc(C#N)nc23)c(Cl)c1 [Example 33, 8-(2-chloro-4-((dimethylamino)methyl)phenyl)-5-(((5-fluoro-2,3-dihydrobenzofuran-4-yl)methyl)amino)imidazo[1,2-c]pyrimidine-2-carbonitrile] |
| < 0.1 | CN(C)C(=O)c1ccc(-c2cnc(NCc3c(F)ccc4c3CCO4)n3cc(C#N)nc23)c(Cl)c1F [Example 34, 3-chloro-4-(2-cyano-5-(((5-fluoro-2,3-dihydrobenzofuran-4-yl)methyl)amino)imidazo[1,2-c]pyrimidin-8-yl)-2-fluoro-N,N-dimethylbenzamide] |
| < 0.1 | CN(C)C(=O)c1cc(Cl)c(-c2cnc(NCc3c(F)ccc4c3CCO4)n3cc(C#N)nc23)cc1F [Example 35, 5-chloro-4-(2-cyano-5-(((5-fluoro-2,3-dihydrobenzofuran-4-yl)methyl)amino)imidazo[1,2-c]pyrimidin-8-yl)-2-fluoro-N,N-dimethylbenzamide] |
| < 0.1 | CN(C)C(=O)c1ccc(-c2cnc(NCc3c(F)ccc4c3CCO4)n3cc(C#N)nc23)cc1F [Example 36, 4-(2-cyano-5-(((5-fluoro-2,3-dihydrobenzofuran-4-yl)methyl)amino)imidazo[1,2-c]pyrimidin-8-yl)-2-fluoro-N,N-dimethylbenzamide] |
| < 0.1 | CN(C)Cc1ccc(-c2cnc(NCc3c(F)ccc4c3CCO4)n3cc(C#N)nc23)c(F)c1F [Example 37, 8-(4-((dimethylamino)methyl)-2,3-difluorophenyl)-5-(((5-fluoro-2,3-dihydrobenzofuran-4-yl)methyl)amino)imidazo[1,2-c]pyrimidine-2-carbonitrile] |
| < 0.1 | CN(C)C(=O)c1cc(F)c(-c2cnc(NCc3c(F)ccc4c3CCO4)n3cc(C#N)nc23)cc1F [Example 38, 4-(2-cyano-5-(((5-fluoro-2,3-dihydrobenzofuran-4-yl)methyl)amino)imidazo[1,2-c]pyrimidin-8-yl)-2,5-difluoro-N,N-dimethylbenzamide] |
| < 0.1 | CN(C)Cc1cc(F)c(-c2cnc(NCc3c(F)ccc4c3CCO4)n3cc(C#N)nc23)cc1F [Example 39, 8-(4-((dimethylamino)methyl)-2,5-difluorophenyl)-5-(((5-fluoro-2,3-dihydrobenzofuran-4-yl)methyl)amino)imidazo[1,2-c]pyrimidine-2-carbonitrile] |
| < 0.1 | CN(C)Cc1ncc(-c2cnc(NCc3c(F)ccc4c3CCO4)n3cc(C#N)nc23)cc1F [Example 40, 8-(6-((dimethylamino)methyl)-5-fluoropyridin-3-yl)-5-(((5-fluoro-2,3-dihydrobenzofuran-4-yl)methyl)amino)imidazo[1,2-c]pyrimidine-2-carbonitrile] |
| < 0.1 | CN(C)C(=O)c1ccc(-c2cnc(NCc3c(F)ccc4c3CCO4)n3cc(C#N)nc23)c(F)c1F [Example 42, 4-(2-cyano-5-(((5-fluoro-2,3-dihydrobenzofuran-4-yl)methyl)amino)imidazo[1,2-c]pyrimidin-8-yl)-2,3-difluoro-N,N-dimethylbenzamide] |
| < 0.1 | Cc1cc(C(=O)N(C)C)c(F)cc1-c1cnc(NCc2c(F)ccc3c2CCO3)n2cc(C#N)nc12 [Example 43, 4-(2-cyano-5-(((5-fluoro-2,3-dihydrobenzofuran-4-yl)methyl)amino)imidazo[1,2-c]pyrimidin-8-yl)-2-fluoro-N,N,5-trimethylbenzamide] |
| < 0.1 | Cc1cc(C(=O)N(C)C)ccc1-c1cnc(NCc2c(F)ccc3c2CCO3)n2cc(C#N)nc12 [Example 44, 4-(2-cyano-5-(((5-fluoro-2,3-dihydrobenzofuran-4-yl)methyl)amino)imidazo[1,2-c]pyrimidin-8-yl)-N,N,3-trimethylbenzamide] |
| < 0.1 | Cc1cc(S(=O)(=O)N(C)C)ccc1-c1cnc(NCc2c(F)ccc3c2CCO3)n2cc(C#N)nc12 [Example 48, 4-(2-cyano-5-(((5-fluoro-2,3-dihydrobenzofuran-4-yl)methyl)amino)imidazo[1,2-c]pyrimidin-8-yl)-N,N,3-trimethylbenzenesulfonamide] |

Further lines, the compound ahead of its results:

| Structure (SMILES) | IC50 [µM] |
| --- | --- |
| Cc1cc(-c2cnc(NCc3c(F)ccc4c3CCO4)n3cc(C#N)nc23)cnn1 [Example 41, 5-(((5-fluoro-2,3-dihydrobenzofuran-4-yl)methyl)amino)-8-(6-methylpyridazin-4-yl)imidazo[1,2-c]pyrimidine-2-carbonitrile] | < 0.1 |
| CN(C)C(=O)c1c(F)cc(-c2cnc(NCc3c(F)ccc4c3CCO4)n3cc(C#N)nc23)cc1F [Example 45, 4-(2-cyano-5-(((5-fluoro-2,3-dihydrobenzofuran-4-yl)methyl)amino)imidazo[1,2-c]pyrimidin-8-yl)-2,6-difluoro-N,N-dimethylbenzamide] | < 0.1 |
| N#Cc1cn2c(NCc3c(F)ccc4c3CCO4)ncc(-c3ccccc3)c2n1 [Example 46, 5-(((5-fluoro-2,3-dihydrobenzofuran-4-yl)methyl)amino)-8-phenylimidazo[1,2-c]pyrimidine-2-carbonitrile] | < 0.1 |
| N#Cc1cn2c(NCc3c(F)ccc4c3CCO4)ncc(-c3ccc(S(N)(=O)=O)cc3)c2n1 [Example 47, 4-(2-cyano-5-(((5-fluoro-2,3-dihydrobenzofuran-4-yl)methyl)amino)imidazo[1,2-c]pyrimidin-8-yl)benzenesulfonamide] | < 0.1 |
| N#Cc1cn2c(NCc3c(F)ccc4c3CCO4)ncc(-c3ccc(CN4CCCC4=O)cc3)c2n1 [Example 49, 5-(((5-fluoro-2,3-dihydrobenzofuran-4-yl)methyl)amino)-8-(4-((2-oxopyrrolidin-1-yl)methyl)phenyl)imidazo[1,2-c]pyrimidine-2-carbonitrile] | < 0.1 |
| COC1CN(Cc2ccc(-c3cnc(NCc4c(F)ccc5c4CCO5)n4cc(C#N)nc34)cc2)C1 [Example 50, 5-(((5-fluoro-2,3-dihydrobenzofuran-4-yl)methyl)amino)-8-(4-((3-methoxyazetidin-1-yl)methyl)phenyl)imidazo[1,2-c]pyrimidine-2-carbonitrile] | < 0.1 |
| N#Cc1cn2c(NCc3c(F)ccc4c3CCO4)ncc(-c3ccc(CN4CC(F)(F)C4)cc3)c2n1 [Example 51, 8-(4-((3,3-difluoroazetidin-1-yl)methyl)phenyl)-5-(((5-fluoro-2,3-dihydrobenzofuran-4-yl)methyl)amino)imidazo[1,2-c]pyrimidine-2-carbonitrile] | < 0.1 |
| N#Cc1cn2c(NCc3c(F)ccc4c3CCO4)ncc(-c3ccc(CN4CC5CC5C4)cc3)c2n1 (stereo not shown) [Example 52, 8-(4-((3-azabicyclo[3.1.0]hexan-3-yl)methyl)phenyl)-5-(((5-fluoro-2,3-dihydrobenzofuran-4-yl)methyl)amino)imidazo[1,2-c]pyrimidine-2-carbonitrile] | < 0.1 |
| COC1CCN(Cc2ccc(-c3cnc(NCc4c(F)ccc5c4CCO5)n4cc(C#N)nc34)cc2)C1 (stereo not shown) [Example 53, 5-(((5-fluoro-2,3-dihydrobenzofuran-4-yl)methyl)amino)-8-(4-((3-methoxypyrrolidin-1-yl)methyl)phenyl)imidazo[1,2-c]pyrimidine-2-carbonitrile] | < 0.1 |
